{
  "source": "paper PMC11900394",
  "about": "“1-Pyrene Carboxylic Acid: An Internalization Enhancer for Short Oligoarginines” (International Journal of Molecular Sciences, 2025)",
  "key": {"[1]": {"test_system": "MDA-MB-231 cells", "test": "In vitro cytostatic activity, Alamar-blue assay", "assay_type": "cell-based, human", "conditions": "3 h treatment, then 3 days in serum-containing medium, four parallels, two independent experiments, read-out: IC50 ± SD, cytostatic activity", "procedure": "The in vitro measurements were carried out on 96-well plates containing 5 × 10^3 MDA-MB-231 cells per well. The cells were incubated for 24 h at 37 °C. The measurement started with treating these cells with the solutions of compounds for 3 h, where the final volume was 200 μL. The cytostatic activity was measured on a broad spectrum of concentrations between 0.000128 and 100 μM. Serum-free medium was used on cells for 3 h at 37 °C as control. After treatment, the compounds were washed out using a serum-free medium twice. The cells were then cultured for 72 h in a medium with serum. Alamar-blue (Resazurim) assay was used to determine the ratio of live cells and thus the IC50. Briefly, Alamar-blue solution (22.5 μL, 0.15 mg/mL in PBS (pH = 7)) was added to the cells. Synergy H4 multimode microplate reader (BioTek, Winooski, VT, USA) was used to determine the fluorescence (at λ = 530/30 nm and 610/10 nm) after 4 h incubation. Cytostasis was calculated as Cytostatic effect (%) = [1 − (ODtreated/ODcontrol)] × 100; where ODtreated and ODcontrol correspond to the optical densities of the treated and untreated cells, respectively. […] The curves were defined using MicrocalTM Origin (version 8.0, OriginLab, Northampton, MA, USA) software: cytostasis was plotted as a function of concentration, fitted to a sigmoidal curve, and the IC50 value was determined. […]"}, "[2]": {"test_system": "MDA-MB-231 cells", "test": "Intracellular localization by confocal laser scanning microscopy", "assay_type": "cell-based, human", "conditions": "MDA-MB-231, 5 μM, 15, 45 and 90 min; CLSM"}, "[3]": {"test_system": "MDA-MB-231 cells", "conditions": "ref [31], read-out: IC50, cytostatic activity; cited from earlier work", "excerpt": "Table 2 The cytostatic activity of peptide-drug conjugates on MDA-MB-231. | column: IC50 ± SD (µM) * / MDA-MB-231"}},
  "note": "Read-outs that look alike come from different tables or passages of the source. Numbered stars: 1 amine (or outer) side, 2 acyl side, 3 side chain; on linkers, the order of the positions; unused ones are H or OH. Side chains are listed from the residue outwards. Peptide text beside a SMILES is read from it. * marks the point of attachment. Daunorubicin = COc1cccc2c1C(=O)c1c(O)c3c(c(O)c1C2=O)C[C@@](O)(C(C)=O)C[C@@H]3O[C@H]1C[C@H](N*)[C@H](O)[C@H](C)O1; 1Pyrenoyl = O=C(c1ccc2ccc3cccc4ccc1c2c34)*; Suc = O=C(CCC(=O)[*:2])[*:1]",
  "data": [
    {"molecule": "COc1cccc2c1C(=O)c1c(O)c3c(c(O)c1C2=O)C[C@@](O)(C(C)=O)C[C@@H]3O[C@H]1C[C@H](NC(=O)CCC(=O)N[C@@H](CCCNC(=N)N)C(=O)N[C@@H](CCCNC(=N)N)C(=O)N[C@@H](CCCNC(=N)N)C(=O)N[C@@H](CCCNC(=N)N)C(=O)N[C@@H](CCCNC(=N)N)C(=O)N[C@@H](CCCNC(=N)N)C(=O)N[C@@H](CCCNC(=N)N)C(=O)N[C@@H](CCCNC(=N)N)C(=O)N[C@@H](CCCCNC(=O)c2ccc3ccc4cccc5ccc2c3c45)C(N)=O)[C@H](O)[C@H](C)O1", "note": "[DauSuc-Arg8-Lys(PCA)]", "values": [
      {"measurement": "IC50", "setting": "[1]", "result": "23.7 ± 4.3", "unit": "µM"}
    ]},
    {"molecule": "COc1cccc2c1C(=O)c1c(O)c3c(c(O)c1C2=O)C[C@@](O)(C(C)=O)C[C@@H]3O[C@H]1C[C@H](NC(=O)CCC(=O)NCCCC[C@H](NC(=O)[C@H](CCCNC(=N)N)NC(=O)[C@H](CCCNC(=N)N)NC(=O)[C@H](CCCNC(=N)N)NC(=O)[C@H](CCCNC(=N)N)NC(=O)[C@H](CCCNC(=N)N)NC(=O)[C@H](CCCNC(=N)N)NC(=O)[C@H](CCCNC(=N)N)NC(=O)[C@H](CCCNC(=N)N)NC(=O)c2ccc3ccc4cccc5ccc2c3c45)C(N)=O)[C@H](O)[C@H](C)O1", "note": "[PCA-Arg8-Lys(DauSuc)]", "values": [
      {"measurement": "IC50", "setting": "[1]", "result": "28.1 ± 7.5", "unit": "µM"}
    ]},
    {"molecule": "COc1cccc2c1C(=O)c1c(O)c3c(c(O)c1C2=O)C[C@@](O)(C(C)=O)C[C@@H]3O[C@H]1C[C@H](NC(=O)CCC(=O)NCCCC[C@H](NC(=O)[C@H](CCCNC(=N)N)NC(=O)[C@H](CCCNC(=N)N)NC(=O)[C@H](CCCNC(=N)N)NC(=O)[C@H](CCCNC(=N)N)NC(=O)[C@H](Cc2c[nH]c3ccccc23)NC(=O)c2ccc3ccc4cccc5ccc2c3c45)C(N)=O)[C@H](O)[C@H](C)O1", "note": "[PCA-Trp-Arg4-Lys(DauSuc)] (1Pyrenoyl-WRRRRK([Suc-Daunorubicin])-NH2)", "values": [
      {"measurement": "Internalization of DauSuc conjugates (Dau fluorescence)", "setting": "[2]", "result": "very efficient internalization"}
    ]},
    {"molecule": "succinylated daunomycin [DauSuc]", "values": [
      {"measurement": "IC50", "setting": "[3]", "result": "> 100", "unit": "µM"}
    ]}
  ]
}
